Data on 40 compounds can be found in patent US8853420B2, “Compounds” (Boehringer Ingelheim International GmbH, priority 2008, dated 2014).

SMILES strings stand for the structures.

T1 sequence (Q6DE08 60-361): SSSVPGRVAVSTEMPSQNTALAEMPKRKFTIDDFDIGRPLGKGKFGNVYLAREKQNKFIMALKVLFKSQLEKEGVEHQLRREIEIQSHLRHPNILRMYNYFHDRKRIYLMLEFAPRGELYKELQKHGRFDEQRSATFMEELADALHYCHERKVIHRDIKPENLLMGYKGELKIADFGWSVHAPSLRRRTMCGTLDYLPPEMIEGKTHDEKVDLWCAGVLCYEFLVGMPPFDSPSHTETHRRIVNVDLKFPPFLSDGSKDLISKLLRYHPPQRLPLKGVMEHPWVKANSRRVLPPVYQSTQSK
T1 sequence (O13024 790-847 partner limits assumed): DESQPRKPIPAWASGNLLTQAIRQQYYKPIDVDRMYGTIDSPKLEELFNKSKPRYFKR

This assay addresses T1, Xenopus laevis Aurora B/INCENP complex (Xenopus laevis, UniProt Q6DE08).
T1 construct: equipped at the N-terminal position with a GST tag (amino acids 60-361); GST (N, cleaved yes); made in house; host or cells: E. coli BL21 (DE3)
Put plainly: Aurora-B kinase assay (radioactive enzyme inhibition assay). The class given is biochemical. The note with it: test substance at 1 μM; percentage of the positive control (maximum value without test substance). The source says:
Example Aurora-B Kinase Assay
A radioactive enzyme inhibition assay was developed using E. coli-expressed recombinant Xenopus laevis Aurora B wild-type protein equipped at the N-terminal position with a GST tag (amino acids 60-361) in a complex with Xenopus laevis INCENP (amino acids 790-847), which is obtained from bacteria and purified. In equivalent manner a Xenopus laevis Aurora B mutant (G96V) in a complex with Xenopus laevis INCENP^790-847 may also be used.
Expression and Purification
The coding sequence for Aurora-B^60-361 from Xenopus laevis is cloned into a modified version of pGEX-6T (Amersham Biotech) via BamHI and SalI cutting sites. The vector contains two cloning cassettes which are separated by a ribosomal binding site, allowing bi-cistronic expression. In this configuration Xenopus laevis Aurora B is expressed by the first cassette, and the Xenopus laevis INCENP^790-847 is expressed by the second cassette. The resulting vector is pAUB-IN^847.
First of all the E. coli strain BL21 (DE3) is co-transformed with pUBS520 helper plasmid and pAUB-IN^847, after which protein expression is induced using 0.3 mM IPTG at an OD600 of 0.45-0.7. The expression is then continued for approx. 12-16 h at 23-25° C. with agitation.
The bacteria are then removed by centrifuging and the pellet is lysed in lysis buffer (50 mM Tris/Cl pH 7.6, 300 mM NaCl, 1 mM DTT, 1 mM EDTA, 5% glycerol, Roche Complete Protease Inhibitor tablets) using ultrasound, using 20-30 mL lysis buffer per liter of E. coli culture. The lysed material is freed from debris by centrifugation (12000 rpm, 45-60 min, JA20 rotor). The supernatant is incubated with 300 μL of equilibrated GST Sepharose Fast Flow (Amersham Biosciences) per liter of E. coli culture for 4-5 h at 4° C. Then the column material is washed with 30 volumes of lysis buffer and then equilibrated with 30 volumes of cleavage buffer (50 mM Tris/Cl pH 7.6, 150 mM NaCl, 1 mM DTT, 1 mM EDTA). To cleave the GST tag from Aurora B, 10 units of Prescission Protease (Amersham Biosciences) are used per milligram of substrate and the mixture is incubated for 16 h at 4° C. The supernatant which contains the cleavage product is loaded onto a 6 mL Resource Q column (Amersham Biosciences) equilibrated with ion exchange buffer (50 mM Tris/Cl pH 7.6, 150 mM NaCl, 1 mM DTT, 1 mM EDTA). The Aurora B/INCENP complex is caught as it flows through, then concentrated and loaded onto a Superdex 200 size exclusion chromatography (SEC) column equilibrated with SEC buffer (10 mM Tris/Cl pH 7.6, 150 mM NaCl, 1 mM DTT, 1 mM EDTA). Fractions which contain the AuroraB/INCENP complex are collected and concentrated using Vivaspin concentrators (molecular weight exclusion 3000-5000 Da) to a final concentration of 12 mg/mL. Aliquots (e.g. 240 ng/μL) for kinase assays are transferred from this stock solution into freezing buffer (50 mM Tris/Cl pH 8.0, 150 mM NaCl, 0.1 mM EDTA, 0.03% Brij-35, 10% glycerol, 1 mM DTT) and stored at −80° C.
Test substances are placed in a polypropylene dish (96 wells, Greiner #655 201), in order to cover a concentration frame of 10 μM-0.0001 μM. The final concentration of DMSO in the assay is 5%. 30 μL of protein mix (50 mM tris/Cl pH 7.5, 25 mM MgCl2, 25 mM NaCl, 167 μM ATP, 10 ng Xenopus laevis Aurora B/INCENP complex in freezing buffer) are pipetted into the 10 μl of test substance provided in 25% DMSO and this is incubated for 15 min at RT. Then 10 μL of peptide mix (100 mM tris/Cl pH 7.5, 50 mM MgCl2, 50 mM NaCl, 5 μM NaF, 5 μM DTT, 1 μCi gamma-P33-ATP [Amersham], 50 μM substrate peptide [biotin-[…] or multimers thereof, or biotin-[…] or multimers thereof, or biotin-[…]]) are added. The reaction is incubated for 75 min (ambient temperature) and stopped by the addition of 180 μL of 6.4% trichloroacetic acid and incubated for 20 min on ice. […]
`CC(C)Nc1ccc(-c2ccc3c(c2)NC(=O)/C3=C(\Nc2ccc(C(C)(C)C(=O)N3CC[C@H](N(C)C)C3)cc2)c2ccccc2)cn1` [Example 100]: the remaining activity at 1 µM stood at 3.36%. `CC(C)Nc1ccc(-c2ccc3c(c2)NC(=O)/C3=C(\Nc2ccc(C(=O)N3CCN(C)CC3)cc2)c2ccccc2)cn1` [Example 135]: the remaining activity at 1 µM worked out at 0.77%.

For the compound `CC(C)Nc1ncc(-c2ccc3c(c2)NC(=O)/C3=C(\NC2CCN(C)CC2)c2ccccc2)cn1` [Example 79], the remaining activity at 1 µM came out at 103%. The figure for `CC(C)Nc1ccc(-c2ccc3c(c2)NC(=O)/C3=C(\Nc2ccc(C(C)(C)C(=O)N3CCN[C@@H](C)C3)cc2)c2ccccc2)cn1` [Example 99] is 4.64%; for `CC(C)Nc1ccc(-c2ccc3c(c2)NC(=O)/C3=C(\Nc2ccc(CN(C)C)cc2)c2ccccc2)cn1` [Example 58] it is 8.01%; for `CC(=O)c1cncc(-c2ccc3c(c2)NC(=O)/C3=C(\Nc2ccc(CN(C)C)cc2)c2ccccc2)c1` [Example 41] it is 13.5%.

`CC(C)Nc1ccc(-c2ccc3c(c2)NC(=O)/C3=C(\Nc2ccc(C(=O)N3CCC(N(C)C)CC3)cc2)c2ccccc2)cn1` [Example 128]: the remaining activity at 1 µM came out at 4.34%.

For `CC(C)Nc1ccc(-c2ccc3c(c2)NC(=O)/C3=C(\Nc2ccc(C(=O)N3CCN(C(C)C)CC3)cc2)c2ccccc2)cn1` [Example 123], the remaining activity at 1 µM amounted to 2.69%. `COC(=O)C(C)(C)c1ccc(N/C(=C2\C(=O)Nc3cc(-c4cnc(NC(C)C)nc4)ccc32)c2ccccc2)cc1` [Example 82]: the remaining activity at 1 µM is 5.13%. For the compound `CCNC(=O)C#Cc1ccc2c(c1)NC(=O)/C2=C(\Nc1ccc(CN(C)C)cc1)c1ccccc1` [Example 162], the remaining activity at 1 µM amounted to 1.65%. With `CC(C)Nc1ccc(-c2ccc3c(c2)NC(=O)/C3=C(\Nc2ccc(C(=O)NCCN(C)C)cc2)c2ccccc2)cn1` [Example 134] the figure was 1.43%. The figure for `CC(C)Nc1ccc(-c2ccc3c(c2)NC(=O)/C3=C(\Nc2ccc(C(=O)N(C)CCN(C)C)cc2)c2ccccc2)cn1` [Example 138] is 0.68%; for `CN(C)Cc1ccc(N/C(=C2\C(=O)Nc3cc(-c4cnc(C(=O)O)nc4)ccc32)c2ccccc2)cc1` [Example 42] it is 139%. In the case of `CN(C)Cc1ccc(N/C(=C2\C(=O)Nc3cc(-c4ccc(NC5CCC5)nc4)ccc32)c2ccccc2)cc1` [Example 56], the remaining activity at 1 µM turned out to be 5.45%. With `COc1cncc(-c2ccc3c(c2)NC(=O)/C3=C(\Nc2ccc(CN(C)C)cc2)c2ccccc2)c1` [Example 63] the figure was 11%. Regarding `CNC(=O)C#Cc1cc2c(cc1S(=O)(=O)c1ccc(F)cc1)/C(=C(/Nc1ccc(CN(C)C)cc1)c1ccccc1)C(=O)N2` [Example 151], the remaining activity at 1 µM is 1.89%. Take `CC(C)Nc1ncc(-c2ccc3c(c2)NC(=O)/C3=C(\Nc2ccc(N(C)C(=O)CN(C)C)cc2)c2ccccc2)cn1` [Example 75]: the remaining activity at 1 µM is 1.74%. In the case of `CN(C)Cc1ccc(N/C(=C2\C(=O)Nc3cc(-c4ccc(S(C)(=O)=O)cc4)ccc32)c2ccccc2)cc1` [Example 12], the remaining activity at 1 µM is 40%. With `O=C(C#Cc1ccc2c(c1)NC(=O)/C2=C(\Nc1ccc(CN2CCCC2)cc1)c1ccccc1)Nc1ccccc1F` [Example 170] the figure was 1.39%. As for `CC(C)Nc1ccc(-c2ccc3c(c2)NC(=O)/C3=C(\Nc2ccc(C(=O)N3CCN(C4CCOCC4)CC3)cc2)c2ccccc2)cn1` [Example 129], the remaining activity at 1 µM stood at 4.55%. As to `CN(C)Cc1ccc(N/C(=C2\C(=O)Nc3cc(-c4ccc(N(C)C)nc4)ccc32)c2ccccc2)cc1` [Example 6], the remaining activity at 1 µM was 11.4%. With `CCCNc1ncc(-c2ccc3c(c2)NC(=O)/C3=C(\Nc2ccc(CN(C)C)cc2)c2ccccc2)cn1` [Example 50], the remaining activity at 1 µM amounted to 2.79%. For the compound `CC(C)Nc1ncc(-c2ccc3c(c2)NC(=O)/C3=C(\Nc2ccc(N3CCN(C)[C@@H](C)C3)cc2)c2ccccc2)cn1` [Example 93], the remaining activity at 1 µM came to 2.92%. The figure for `CC(C)Nc1ncc(-c2ccc3c(c2)NC(=O)/C3=C(\Nc2ccc(C(C)(C)C(=O)O)cc2)c2ccccc2)cn1` [Example 81] is 1.26%; for `CC(C)Nc1ccc(-c2ccc3c(c2)NC(=O)/C3=C(\Nc2ccc(C(=O)N3C[C@H]4C[C@@H]3CN4C)cc2)c2ccccc2)cn1` [Example 131] it is 5.48%; for `CC(C)Nc1ccc(-c2ccc3c(c2)NC(=O)/C3=C(\Nc2ccc(C(C)(C)C(=O)N3CC[C@@H](N(C)C)C3)cc2)c2ccccc2)cn1` [Example 101] it is 3.62%. The figure for `CN(C)Cc1ccc(N/C(=C2\C(=O)Nc3cc(-c4ccc(NCC5CC5)nc4)ccc32)c2ccccc2)cc1` [Example 55] is 5.91%; for `COc1cc(N/C(=C2\C(=O)Nc3cc(-c4ccc(NC(C)C)nc4)ccc32)c2ccccc2)ccc1C(=O)N1CC[C@H](N(C)C)C1` [Example 110] it is 1.54%.

For the compound `CC(C)Nc1ccc(-c2ccc3c(c2)NC(=O)/C3=C(\Nc2ccc(C(=O)N(C)C3CCN(C)CC3)cc2)c2ccccc2)cn1` [Example 139], the remaining activity at 1 µM turned out to be 0.88%. On to `CNc1ccc(-c2ccc3c(c2)NC(=O)/C3=C(\Nc2ccc(CN(C)C)cc2)c2ccccc2)cn1` [Example 8], for which the remaining activity at 1 µM was determined as 15.6%. On to `CNCC#Cc1cc2c(cc1S(=O)(=O)N1CC(F)(F)C1)/C(=C(/Nc1ccccc1)c1ccccc1)C(=O)N2` [Example 153], for which the remaining activity at 1 µM was 1.2%.

On to `CNCC#Cc1cc2c(cc1S(=O)(=O)c1ccc(F)cc1)/C(=C(/Nc1ccccc1)c1ccccc1)C(=O)N2` [Example 157], for which the remaining activity at 1 µM turned out to be 1.98%. Regarding `CCNC(=O)C#Cc1ccc2c(c1)NC(=O)/C2=C(\Nc1ccc(CN2CCCC2)cc1)c1ccccc1` [Example 175], the remaining activity at 1 µM came out at 3.04%.

`CCNC(=O)C#Cc1ccc2c(c1)NC(=O)/C2=C(\Nc1ccc(N2CCN(C)CC2)cc1)c1ccccc1` [Example 160]: the remaining activity at 1 µM amounted to 1.39%.

As for `CN(C)Cc1ccc(N/C(=C2\C(=O)Nc3cc(C#CC(=O)NC4CCC4)ccc32)c2ccccc2)cc1` [Example 165], the remaining activity at 1 µM came to 2.4%. `O=C(C#Cc1ccc2c(c1)NC(=O)/C2=C(\Nc1ccc(CN2CCCC2)cc1)c1ccccc1)Nc1cccc(Cl)c1` [Example 173]: the remaining activity at 1 µM came out at 3.68%. With `CC(C)Nc1ncc(-c2ccc3c(c2)NC(=O)/C3=C(\Nc2ccc(OCCCN(C)C)cc2)c2ccccc2)cn1` [Example 89] the figure was 5.97%; with `CN(C)Cc1ccc(N/C(=C2\C(=O)Nc3cc(-c4cccc(S(=O)(=O)N(C)C)c4)ccc32)c2ccccc2)cc1` [Example 65], 27.6%; with `CN(C)Cc1ccc(N/C(=C2\C(=O)Nc3cc(-c4cnc5ccccc5c4)ccc32)c2ccccc2)cc1` [Example 40], 34.7%. With `CN(C)Cc1ccc(N/C(=C2\C(=O)Nc3cc(-c4cnc(NCC5CC5)cn4)ccc32)c2ccccc2)cc1` [Example 2] the figure was 12.6%.
